Experiments:
[1] = molecular target: Ephrin type-A receptor 4 (Homo sapiens, UniProt P54764); assay: Displacement of biotinylated ephrin-A1-Fc from EphA4 (unknown origin) preincubated for 1 hr followed by biotinylated-ephrin-A1-Fc addition measured after 4 hrs by ELISA
[2] = molecular target: T1, Ephrin type-A receptor 8 (Homo sapiens) (UniProt P29322); assay: (§1) Displacement of biotinylated ephrin-A1-Fc from EphA8 (unknown origin) preincubated for 1 hr followed by biotinylated-ephrin-A1-Fc addition measured after 4 hrs by ELISA
T1 sequence (whole entry): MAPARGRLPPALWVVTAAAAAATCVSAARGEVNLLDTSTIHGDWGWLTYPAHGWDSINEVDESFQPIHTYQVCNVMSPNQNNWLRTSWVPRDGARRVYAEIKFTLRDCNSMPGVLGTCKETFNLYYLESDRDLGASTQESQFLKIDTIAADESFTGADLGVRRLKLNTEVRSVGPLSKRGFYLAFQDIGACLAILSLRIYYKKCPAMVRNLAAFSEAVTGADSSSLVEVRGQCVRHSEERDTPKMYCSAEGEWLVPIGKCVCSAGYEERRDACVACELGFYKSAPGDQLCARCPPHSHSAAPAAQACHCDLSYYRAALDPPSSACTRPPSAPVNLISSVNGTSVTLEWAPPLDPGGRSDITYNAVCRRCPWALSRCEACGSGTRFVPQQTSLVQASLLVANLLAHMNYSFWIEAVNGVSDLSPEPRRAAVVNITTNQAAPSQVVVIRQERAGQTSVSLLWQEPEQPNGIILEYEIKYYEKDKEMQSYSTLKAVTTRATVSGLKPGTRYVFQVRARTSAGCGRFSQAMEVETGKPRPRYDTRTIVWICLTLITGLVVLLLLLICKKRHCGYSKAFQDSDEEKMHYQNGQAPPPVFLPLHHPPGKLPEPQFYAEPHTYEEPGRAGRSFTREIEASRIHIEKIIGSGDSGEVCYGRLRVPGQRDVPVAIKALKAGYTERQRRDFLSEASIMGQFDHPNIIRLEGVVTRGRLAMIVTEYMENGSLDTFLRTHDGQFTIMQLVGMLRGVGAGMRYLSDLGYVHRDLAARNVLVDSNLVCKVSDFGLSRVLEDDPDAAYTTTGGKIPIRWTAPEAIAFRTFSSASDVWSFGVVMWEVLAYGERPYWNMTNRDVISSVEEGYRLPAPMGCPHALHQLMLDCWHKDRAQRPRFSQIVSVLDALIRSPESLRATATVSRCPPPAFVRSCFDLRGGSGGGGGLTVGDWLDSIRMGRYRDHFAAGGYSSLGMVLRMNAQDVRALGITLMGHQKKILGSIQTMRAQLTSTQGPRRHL

[3] = molecular target: T2, Ephrin type-A receptor 8 (Homo sapiens, UniProt P29322); assay: as §1
T2 sequence (P29322 whole entry): T1 sequence (whole entry)

[4] = molecular target: T3, Ephrin type-B receptor 1 (Homo sapiens) (UniProt P54762); assay: (§2) Displacement of biotinylated ephrin-B1-Fc from EphB1 (unknown origin) preincubated for 1 hr followed by biotinylated-ephrin-B1-Fc addition measured after 4 hrs by ELISA
T3 sequence (whole entry): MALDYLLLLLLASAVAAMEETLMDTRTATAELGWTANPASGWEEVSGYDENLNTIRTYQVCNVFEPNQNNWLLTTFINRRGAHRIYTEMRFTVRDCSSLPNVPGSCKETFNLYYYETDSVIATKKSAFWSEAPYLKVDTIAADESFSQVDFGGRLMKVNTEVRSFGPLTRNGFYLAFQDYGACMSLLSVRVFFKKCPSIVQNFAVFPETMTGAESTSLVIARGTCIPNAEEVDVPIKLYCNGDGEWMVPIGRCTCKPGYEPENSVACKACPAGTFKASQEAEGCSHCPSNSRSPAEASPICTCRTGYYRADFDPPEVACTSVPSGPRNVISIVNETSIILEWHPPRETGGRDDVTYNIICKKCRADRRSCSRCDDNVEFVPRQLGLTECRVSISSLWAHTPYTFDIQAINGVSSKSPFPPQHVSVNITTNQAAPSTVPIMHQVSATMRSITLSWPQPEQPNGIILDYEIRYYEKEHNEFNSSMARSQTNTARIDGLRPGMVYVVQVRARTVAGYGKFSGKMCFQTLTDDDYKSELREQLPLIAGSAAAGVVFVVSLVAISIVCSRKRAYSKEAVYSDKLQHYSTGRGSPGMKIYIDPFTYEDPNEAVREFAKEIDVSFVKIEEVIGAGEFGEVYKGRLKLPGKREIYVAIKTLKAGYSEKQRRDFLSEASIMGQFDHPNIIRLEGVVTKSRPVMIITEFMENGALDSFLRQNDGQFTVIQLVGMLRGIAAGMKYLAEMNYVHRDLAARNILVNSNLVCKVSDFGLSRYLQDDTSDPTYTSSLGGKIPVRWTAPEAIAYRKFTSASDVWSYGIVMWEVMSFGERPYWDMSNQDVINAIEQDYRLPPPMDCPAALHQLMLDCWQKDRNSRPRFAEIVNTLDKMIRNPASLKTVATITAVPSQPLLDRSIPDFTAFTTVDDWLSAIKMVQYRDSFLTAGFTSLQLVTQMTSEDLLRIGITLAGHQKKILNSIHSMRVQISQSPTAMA

[5] = molecular target: T4, Ephrin type-B receptor 1 (Homo sapiens, UniProt P54762); assay: as §2
T4 sequence (P54762 whole entry): T3 sequence (whole entry)

[6] = Cmax in mouse at 30 mg/kg, po administered as single dose by HPLC-MS analysis; assay type: ADME, organism-based; set-up: dose 30 mg/kg, route oral; conditions: in vivo
[7] = AUC (0 to t) in mouse at 30 mg/kg, po administered as single dose by HPLC-MS analysis; assay type: ADME, organism-based; conditions: in vivo
[8] = n-octanol-water distribution coefficient, log D of the compound at pH 7.4 after 4 hrs by shake-flask method; assay type: physicochemical
[9] = Cytotoxicity against human PC3 cells at 10 to 30 uM after 2 hrs by LDH release assay; assay type: cell-based; conditions: pc-3, 2 h
[10] = Tmax in mouse at 30 mg/kg, po administered as single dose by HPLC-MS analysis; assay type: ADME, organism-based; conditions: in vivo

Chain of Ephrin type-A receptor 4 (P54764 whole entry): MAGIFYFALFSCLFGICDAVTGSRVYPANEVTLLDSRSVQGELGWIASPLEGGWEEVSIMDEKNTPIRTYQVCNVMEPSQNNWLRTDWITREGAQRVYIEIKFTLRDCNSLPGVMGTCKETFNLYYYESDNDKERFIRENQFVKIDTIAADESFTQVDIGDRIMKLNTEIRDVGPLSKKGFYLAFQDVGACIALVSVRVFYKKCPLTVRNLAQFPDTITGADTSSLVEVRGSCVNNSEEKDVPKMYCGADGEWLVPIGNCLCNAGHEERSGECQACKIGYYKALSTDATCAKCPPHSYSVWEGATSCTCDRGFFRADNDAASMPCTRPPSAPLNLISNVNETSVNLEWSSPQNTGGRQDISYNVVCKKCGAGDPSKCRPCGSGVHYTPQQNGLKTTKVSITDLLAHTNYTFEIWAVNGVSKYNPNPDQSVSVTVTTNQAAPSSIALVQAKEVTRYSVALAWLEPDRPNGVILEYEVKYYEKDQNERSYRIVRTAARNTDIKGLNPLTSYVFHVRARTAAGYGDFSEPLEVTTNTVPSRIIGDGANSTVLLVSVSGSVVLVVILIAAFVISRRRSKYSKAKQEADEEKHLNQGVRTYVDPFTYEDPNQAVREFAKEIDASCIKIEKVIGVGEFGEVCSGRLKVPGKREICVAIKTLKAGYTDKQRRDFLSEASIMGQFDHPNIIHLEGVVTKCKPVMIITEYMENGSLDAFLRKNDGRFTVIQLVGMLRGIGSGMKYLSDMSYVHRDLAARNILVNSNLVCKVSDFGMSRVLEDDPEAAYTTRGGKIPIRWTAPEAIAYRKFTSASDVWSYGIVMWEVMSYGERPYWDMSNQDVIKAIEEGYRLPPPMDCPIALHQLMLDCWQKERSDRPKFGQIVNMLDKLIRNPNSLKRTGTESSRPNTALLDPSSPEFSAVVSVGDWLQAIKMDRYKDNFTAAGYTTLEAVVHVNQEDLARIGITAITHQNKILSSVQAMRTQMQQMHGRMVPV

Question: Which IC50 [1] does the source give for `C[C@H](CCC(=O)N[C@@H](Cc1c[nH]c2ccccc12)C(=O)O)[C@H]1CC[C@H]2[C@@H]3CC=C4C[C@@H](O)CC[C@]4(C)[C@H]3CC[C@]12C` here?
Answer: 3.8 µM

Question: What about the inhibition [1] of the same molecule?
Answer: Dose-dependent effect

Question: And the inhibition [2]?
Answer: Dose-dependent effect

Question: What about the IC50 [3] of the same molecule?
Answer: 3.1 µM

Question: And the inhibition [4]?
Answer: Dose-dependent effect

Question: What about the IC50 [5] of the same molecule?
Answer: 2.5 µM

Question: What about the Cmax [6] of the same molecule?
Answer: 1.4 µM

Question: What about the AUC(0-t) [7] of the same molecule?
Answer: 0.573 µg·h/mL

Question: And the logD at 4 h [8]?
Answer: 4.01

Question: What about the Activity [9] of the same molecule?
Answer: Non-toxic

Question: And the Tmax [10]?
Answer: 30 min

Reference: ChEMBL document CHEMBL3734669, “Δ(5)-Cholenoyl-amino acids as selective and orally available antagonists of the Eph-ephrin system” (Eur J Med Chem, 2015)
